# Measured values taken from patent US10226514B2, “Methods and compositions for reducing blood glucose levels” (The Children's Medical Center Corporation, priority 2011, dated 2019).
# Positions count from the first letter of the chain named. Names and notes keep the numbering of the source.
# B1: T48A: mutant XBP1s with Thr48 residue mutated to alanine (protein)
# chain: MVVVAAAPSAATAAPKVLLLSGQPASGGRALPLMVPGPRAAGSEASGAPQARKRQRLTHLSPEEKALRRKLKNRVAAQTARDRKKARMSELEQQVVDLEEENHKLQLENQLLREKTHGLVVENQELRTRLGMDTLDPDEVPEVEAKGSGVRLVAGSAESAAGAGPVVTSPEHLPMDSDTVASSDSESDILLGILDKLDPVMFFKCPSPESASLEELPEVYPEGPSSLPASLSLSVGTSSAKLEAINELIRFDHVYTKPLVLEIPSETESQTNVVVKIEEAPLSSSEEDHPEFIVSVKKEPLEDDFIPELGISNLLSSSHCLRPPSCLLDAHSDCGYEGSPSPFSDMSSPLGTDHSWEDTFANELFPQLISV
# B2: S61A: amino acid substitution mutant XBP1s at Ser61 (protein)
# chain: B1 chain with A48T, S61A
# Tests used:
# XBP1s [1] = assay: XBP1s protein levels in Ad-XBP1s-infected MEFs (western blot); assay type: cell-based, mouse
# Description: (§1) MEF cells were from American Type Tissue Collection (ATCC). These cells were grown in Dulbecco's Modified Eagel Medium (DMEM) supplemented with 10% fetal bovine serum (FBS), 10 U/ml penicillin and 1 μg/ml streptomycin at 37° C. and 5% CO2. Fao cells were maintained in RPMI 1640 medium (Invitrogen) supplemented with 10% fetal bovine serum (FBS), 10 U/ml penicillin and 1 μg/ml streptomycin.
# (§2) Adenovirus expressing XBP1s T48A, XBP1s S61A, XBP1s T48A/S61A and MKK6Glu were produced with ViraPower Adenoviral Expression System (Invitrogen) according to manufacturer's instruction. Briefly, pAD-XBP1s T48A, pAD-XBP1s S61A, pAd-XBP1s T48A/S61A and pAd-MKK6Glu were linearized by restriction endonuclease digestion with PacI and transfected to 293A cells by Lipofectamine. The media was changed with fresh media every other day until the cytopathic effect was observed. When cytopathic effect reached to 80%, cells were collected by centrifugation. The pellet was resuspended in PBS and subjected to freezing and thawing cycles at −80° C. and 37° C. for 4 times. The supernatant containing the virus was prepared by centrifugation at 4,000 rpm for 20 min at room temperature. Ad-XBP s and Ad-Cre were generated as described previously (Ozcan, L., et al. (2009) Cell metabolism 9:35-51). For infection, cells were incubated with adenovirus in reduced volume of medium containing 1% FBS and antibiotics. Cells were gently rocked every 15 min for 1 h to increase efficiency of infection, and then fresh medium were added and cells were incubated for additional 15 h or 23 h.
# Cells were lysed in lysis buffer (25 mM Tris-HCl, pH 7.4; 10 mM NaF; 10 mM Na4P207; 2 mM Na3VO4; 1 mM EGTA; 1 mM EDTA; 1% NP-40; 10 μg/ml Leupeptin; 10 μg/ml Aprotinin; 1 mM PMSF and 20 nM Okadaic acid). After 20 min-rotation at 4° C., cell lysates were centrifuged at 13,200 rpm for 20 min at 4° C. Supernatants were collected and protein concentration was quantified by using Protein Assay Kit (Bio-Rad). The concentrations of protein were normalized with lysis buffer to have equivalent amounts of protein and volume. Protein was denatured by boiling at 100° C. for 5 min in Laemmli buffer. The lysates were cooled to room temperature before loading for western blot analysis.
# Western blot analysis was performed as previously described (Ozcan, L., et al. (2009) Cell metabolism 9:35-51). Samples from cell lysates or tissue lysates were resolved by SDS-PAGE and then transferred to polyvinylidene fluoride (PVDF) membrane. After 1 h blocking at room temperature using 10% blocking reagent (Roche), membrane was incubated overnight with primary antibody in Tris-buffered saline solution/Tween (TBST) containing 10% blocking reagent at 4° C. After the incubation, membrane was washed three times in TBST and incubated with secondary antibody for 1 h at room temperature. After three-time washing in TBST, membrane was developed using a chemiluminescence assay system (Roche) and exposed to Kodak films. Relative protein levels were quantified by Image J program.
# XBP1s [2] = assay: XBP1s levels in Ad-XBP1s-infected Fao cells; assay type: cell-based; settings: Ad-XBP1s-infected Fao cells (rat hepatoma)
# Description: as §1
# as §2, with “Ad-XBP s and Ad-Cre were generated as described previously (Ozcan, L., et al. (2009) Cell metabolism 9:35-51). For infection, cells were incubated with adenovirus in reduced volume of medium containing 1% FBS and antibiotics. Cells were gently rocked every 15 min for 1 h to increase efficiency of infection, and then fresh medium were added and cells were incubated for additional 15 h or 23 h.” left out
# Western blot analysis was performed as previously described (Ozcan, L., et al. (2009) Cell metabolism 9:35-51). […] Relative protein levels were quantified by Image J program.
# XBP1s [3] = assay: FBS-induced XBP1s nuclear translocation in starved cells; assay type: cell-based, mouse; settings: 16 h starved cells, inhibitor 10 μM before 10% FBS
# Description: XBP1s is generated in the liver when an animal is refed after a fasting period (Park, S. W., et al. (2010) Nature Med 16:429-437), likely mainly due to increased metabolic overloading. To create a metabolic overloading model in cells, following a 16 h starvation in medium without fetal bovine serum (FBS), cells were reincubated for 15, 30 and 60 minutes with medium containing 10% FBS, following which total and nuclear proteins or mRNA were isolated and used to analyze various parameters, including p38 MAPK activation, XBP1s nuclear migration, and splicing. When the cells were starved, then stimulated with medium containing 10% FBS, there was a robust increase in XBP1s splicing and nuclear translocation, as well as in activation of p38 MAPK (FIG. 10A). […] The same experiment was then repeated in p38α^−/− and MKK3,6^−/− cells. […] Moreover, FBS-induced XBP i s nuclear translocation was severely impaired in the MKK3,6^−/− cells (FIG. 10C).
# XBP1s [4] = assay: Co-expression of kinase constructs with XBP1s in transfected cells; assay type: cell-based; settings: p38 MAPK inhibitor 10 μM
# Description: To unravel the molecular mechanisms underlying the above observations, several different approaches were taken to explore whether activation of JNK, which is one of the most dominant signaling elements in SAPK signaling, affects XBP1s levels and nuclear translocation. […] It is known that MAPK kinase kinase (MKK) 4 and 7 are upstream kinases responsible for JNK activation (Tournier, C., et al. (2001) Genes Dev 15:1419-1426; Brancho, D., et al. (2003) Genes Dev 17:1969-1978) and anisomycin or TNFα cannot activate JNK in MKK4 and 7 double knock out cells (MKK4,7^−/−) (Tournier, C., et al. (2001) Genes Dev 15:1419-1426; Schaeffer, H. J. & Weber, M. J. (1999) Mol Cell Biol 19:2435-2444). In order to determine whether XBP1s can be regulated by anisomycin treatment in MKK4,7^−/− cells, these cells, along with their controls, were treated with anisomycin after XBP is expression. […] Furthermore, the experiments were repeated in JNK1,2^−/− and MKK4,7^−/− cells with TNFα. […] Finally, an MKK7-JNK1 fusion protein, previously shown to be a specific activator of JNK (Lei, K., et al. (2002) Mol Cell Biol 22:4929-4942), was used to investigate whether activation of JNK alone can have effect on XBP1s.
# A constitutively active form of MKK6 (MKK6Glu), one of the upstream kinases of p38 MAPK, was previously generated by mutation of Ser207 and […] to glutamate. […]
# p38 MAPK = assay: Fasting/re-feeding of lean mice treated with p38 MAPK inhibitor; assay type: in vivo, mouse; settings: 2 mg/kg/day intraperitoneally three days
# Description: For liver tissue, a kit from Thermo Scientific (Rockford, Ill.) was used according to the manufacturer's instruction. Liver tissues were cut into small pieces, washed with PBS, and separated from PBS by centrifugation at 500×g for 5 minutes. Collected tissues were resuspended by company-supplied CER I buffer and homogenized with a Dounce homogenizer. Homogenized tissues were vortexed and incubated on ice for 10 minutes. Following CER II buffer addition, tissues were vortexed for 5 seconds, incubated for 1 minute on ice, vortexed again, and then centrifuged for 5 minutes at maximum speed in a microcentrifuge. The supernatant (cytoplasmic fraction) was saved for later analysis. The pellets were resuspended with supplied NER buffer and undergone a series of multiple vortexing (15 seconds) and incubation on ice (10 minutes) for a total of 40 minutes. After 10-minute centrifugation, the supernatant (nuclear fraction) was collected and analyzed with immunoblotting.
# Tissues were homogenized with a bench-top homogenizer (Polytron, PT2100) in ice-cold tissue lysis buffer (25 mM Tris-HCl, pH 7.4; 100 mM NaF; 50 mM Na4P207; 10 mM Na3VO4; 10 mM EGTA; 10 mM EDTA; 1% NP-40; 10 μg/ml Leupeptin; 10 μg/ml Aprotinin; 2 mM PMSF and 20 nM Okadaic acid). After homogenization, lysates were rotated for 1 h at 4° C. and then subjected to centrifugation at 13,200 rpm for 20 min at 4° C. The lipid layer was removed and the supernatant was transferred into Eppendorf tubes for centrifugation. This process was repeated for 2 times to get rid of lipid completely. Protein concentration was quantified by using Protein Assay Kit (Bio-Rad). Equivalent protein concentration in each sample was prepared and boiled at 100° C. for 5 min in Laemmli buffer. The lysates were cooled to room temperature before loading for western blot analysis.
# XBP1s [5] = assay: Cytoplasmic and nuclear XBP1s protein in cells; assay type: cell-based, mouse; settings: mutant XBP1s expressed in cells, anisomycin 25 ng/ml, vs WT
# Description: Cytoplasmic and nuclear protein fractions were extracted from cells by using nuclear protein extraction kit from Active Motif (Carlsbad, Calif.). Cells were maintained in 10 cm tissue culture dishes for nuclear/cytoplasmic extraction. After removal of the media, cells were washed with ice-cold phosphate buffered saline (PBS) containing phosphatase inhibitors. Subsequently, 3 ml of ice-cold PBS with phosphatase inhibitors was added and then cells were scrapped out of the dish. Collected cells were separated from PBS by centrifugation for 5 minutes at 500 rpm and resuspended with 500 μl of 1× hypotonic buffer. After 15-minute incubation in hypotonic buffer on ice, 25 μl of supplied detergent was added and cells were vortexed 10 seconds. Cells were centrifuged for 30 seconds at 14,000×g and supernatant (cytoplasmic fraction) was saved for further analysis. Remaining pellet, which contains nuclei, were resuspended with 50 μl of provided complete lysis buffer with 1 mM dithiothreitol (DTT), vortexed 10 seconds, and incubated for 30 minutes on ice. After 30-second vortexing and 10-minute centrifugation at 14,000×g, the supernatant was collected and analyzed as nuclear fraction.
molecule,measurement,setting,value
TNFα,XBP1s protein levels,"XBP1s [1]; Ad-XBP1s-infected MEFs, increasing doses, two hours",markedly increased XBP1s protein levels
same,XBP1s protein levels,"XBP1s [1]; JNK1,2−/− cells",significant increase in XBP1s levels
same,XBP1s levels,"XBP1s [1]; MKK4,7−/− cells",significant increase in XBP1s levels
same,XBP1s levels,XBP1s [2],dramatically upregulating their XBP1s levels
C[S+]([O-])c1ccc(-c2nc(-c3ccncc3)c(-c3ccc(F)cc3)[nH]2)cc1 (stereo not drawn) [SB203580],anisomycin-induced increase in XBP1s levels,"XBP1s [1]; SB203580 10 μM 30 minutes, then anisomycin 25 ng/ml two hours",completely abolished
same,FBS-induced XBP1s nuclear translocation,XBP1s [3],completely eliminated XBP1s nuclear translocation
same,XBP1s splicing,XBP1s [3],without altering XBP1s splicing
same,effect of MKK6Glu on XBP1s,XBP1s [4],blocked the effect of MKK6Glu on XBP1s
same,GRP78 expression increase in liver after re-feeding,p38 MAPK,but not in the inhibitor-treated group
same,XBP1s mRNA levels in the liver of re-fed mice,p38 MAPK,significantly increased
same,ATF2 phosphorylation,p38 MAPK; lean C57BL6 mice,dramatic reduction in phosphorylation
same,XBP1s nuclear translocation in the liver after re-feeding,"p38 MAPK; lean C57BL6 mice, starved 24 hours, refed one hour",completely absent
CCOc1nc(NC(=O)Cc2cc(OC)ccc2OC)cc(N)c1C#N [JNK inhibitor VIII],effect on anisomycin-mediated upregulation of XBP1s protein levels,"XBP1s [1]; JNK inhibitor 10 μM 30 minutes, then anisomycin 25 ng/ml two hours",no effect
B1,decrease of XBP1s nuclear translocation,XBP1s [5],about 49%
B2,decrease of XBP1s nuclear translocation,XBP1s [5],about 79%
